In the assay the test system is human striated muscle cells innervated with explants of rat embryonic spinal ganglia and spinal cord. As to the kind of experiment: nerve/muscle coculture model: frequency of muscle fiber contractions. The assay is classed as cell-based. The conditions noted are these: for inhibition at 10 µM: Homo sapiens, concentration of 10^−5 M, contractions counted over 30 seconds after incubation for 60 seconds, read-out: inhibition of the frequency of contraction of the muscle fibers. The method, then:
Compounds 1 and 2 were tested at a given concentration, on a model of nerve/muscle coculture, which makes it possible to recreate a motor arc by innervating human striated muscle cells with explants of rat embryonic spinal ganglia and spinal cord.
This test is predictive of an inhibitory effect on muscle fiber contractions.
The protocol adopted is as follows:
Human myoblasts (primary culture of human muscle cells, M1b) were inoculated in 24-well plates. The culture medium is a mixture of ⅔ MEM (Invitrogen 21090-022), ⅓ M199 (Invitrogen 31153-026) and 5% FCS. At confluence, spinal cord explants from 13-day-old rat embryos are placed on the primary culture. The first contractions of the muscle fibers are observed after one week of coculture. After three weeks, these muscle fibers are striated and have mature differentiated neuromuscular junctions.
The products are tested in triplicate (3 fibers analysed) at two concentrations. For each culture well, a muscle fiber having regular contractions (>60 contractions per minute) is selected and the number of contractions is counted over 30 seconds. The test product is then added to the culture medium under a microscope without moving the microscope stage. After incubation for 60 seconds, the number of contractions is again counted over 30 seconds. The whole experiment is recorded using a digital camera. The videos are saved on an electronic medium.

SMILES strings stand for the structures.

The results in this text go back to patent US20060193804A1, “Haircare use of cyclic amine derivatives” (L'OREAL, priority 2005, published 2006).

Take `c1ccc(CCCC2CCN(CCCc3ccccc3)CC2)cc1` [Compound 2]: the inhibition at 10 µM was approximately 55%.
As for `c1ccc(CCCCN2CCC(c3ccccc3)CC2)cc1` [Compound 1], the “dose-response effect on contraction of the muscle fibers” value is “induces a dose-response effect” and the inhibition at 10 µM came out at 50%.

Usually inhibition stands for the drop in the measured response relative to a control, in per cent.
